Data as given in patent US20060276385A1, “Anti-inflammatory agents and methods of their use” (priority 2003, published 2006).

Experiments:
NF-κB = NF-κB assay with NF-κB-SEAP reporter construct; format: cell-based; details: NF-κB-SEAP co-transfected with BMP4 vector vs empty vector
Protocol: NF-κB assay: NF-κB activity was determined by using a NF-κB reporter construct, NF-κB-SEAP vector (lug, Clontech) expressing a secreted form of placental alkaline phosphatase driven by […] sequences in tandem. This construct was co-transfected with 0.5 μg of either pAdTrack BMP4 or empty vector control using Lipofectamine 2000. Six hours post transfection, conditioned media were centrifuged, heat-treated at 65° C. (to inactivate endogenous alkaline phosphatase) for 30 min, and followed by chemiluminescence alkaline phosphatase assay according to the manufacturer's instructions.
In this study, NF-κB-SEAP construct expressing a secreted form of placental alkaline phosphatase driven by 4 κB sequences in tandem was co-transfected with either BMP4 vector or empty vector control by a Lipofectamine method used above (FIG. 5F).

MAE-wt cells = assay: H2O2 assay by oxidation of DCF-DA; format: cell-based, mouse; details: BMP4 18 hrs
Protocol: H2O2 assay: Cells grown in 6-well plates were treated with BMP4 or vehicle control for 18 hrs in the presence or absence of cell-permeable polyethylene glycol (PEG)-catalase (100 U/ml). Cells were then washed once with Hepes buffered saline solution (HBSS) followed by incubation with 7.5 μg/ml 2′, 7′-dichlorofluorescein diacetate (DCF-DA, Molecular Probes) in HBSS for 1 hr at 37 C° in the dark. Cells were washed with HBSS, incubated further for an additional 40 min in HBSS, and the DCF fluorescence intensities were measured in a Cytofluor Multi-Well plate reader (excitation at 475 nm and emission at 525 nm).
In addition, BMP4 stimulated production of H2O2 by 70% above control as determined by oxidation of DCF-DA (FIG. 10B). […] The cells were washed, incubated with DCF-DA, and the fluorescent intensities determined by fluorometry. Shown is a mean±SEM (n=3, p<0.05). In this assay, a redox cycling menadione (10 μM) was used as positive control (data not shown).

ICAM-1 = ICAM-1 surface expression by FACS analysis in HAEC; format: cell-based, human
Protocol: (§1) Endothelial cells: Mouse aortic endothelial cells (MAEC) were cultured and used at passages 4-8 as described (Cai, H., et al. (2002) J Bio Chem 107, 48311-48317). Human aortic endothelial cells (HAEC) purchased from Clonetics were cultured using EGM-2 bullet kit (Clonetics) and used at passages 4-8. Alternatively, endothelial cells obtained from the thoracic aortas of C57/BL6 control (MAE-wt) and p47^phox-null mice (MAE-p47^−/−) were isolated and cultured as described previously (Hwang, J. et al. (2003) J Biol Chem 278:47291-8), and used between passages 4-10.
(§2) Shear stress studies: Confluent endothelial monolayers grown in 100 mm tissue culture dishes were exposed to an arterial level of uni-directional LS (15 dyn/cm^2) in the growth medium by rotating a Teflon cone (0.5° cone angle) as described previously. To mimic unstable shear conditions in vivo, endothelial cells were exposed to OS with directional changes of flow at 1 Hz cycle (±5 dyn/cm^2) by rotating the cone back-and-forth using a stepping motor (Servo Motor) and a computer program (DC Motor Company, Atlanta, Ga.). In some studies, 5 dyn/cm^2 unidirectional LS was used for comparison to OS (±5 dyn/cm^2).
Fluorescence activated cytometry sorting (FACS) analysis: Treated cells were dissociated into single cell suspensions using 0.25% trypsin-EDTA and resuspended in a FACS buffer (Hank's buffered solution containing 5% FBS). Aliquots of cell suspensions were incubated with ICAM-1 antibody (R&D Systems) for 20 min on ice, washed twice with FACS buffer, and incubated with secondary antibody (fluorescein-5-isothiocyanate- or phycoerytherin-conjugated, Chemicon) for 20 min on ice in the dark. Then samples were washed again, fixed in 1% paraformaldehyde and analyzed by FACS (Calibur, Becton-Dickinson) using CellQuest software. The fluorescence intensity of ICAM-1 and forward cell scattering of 30,000 cells were measured and the geometric means calculated from histograms were shown. In some studies, HAEC were transfected with either BMP4 cloned in a bi-cistronic pAdTrack CMV vector or an empty vector, both expressing green fluorescent protein (GFP), using Lipofectamine 2000. In these experiments, ICAM-1 expression was measured in the red phycoerytherin channel, while the green channel was used to monitor the […] expression-GFP expression was determined by FACS analysis and fluorescence microscopy (20-30% transfection efficiency). Because expression of GFP was similar among different treatment groups within the same experiment, it was unnecessary to normalize ICAM-1 expression data to GFP level. Human recombinant noggin was purchased from R&D Systems and used in all experiments at 50 ng/ml (Dale, L., and Jones, C. M. (1999) Bioessays 21, 751-760; Zimmerman, L. B., et al. (1996) Cell 86, 599-606; Brunei, L. J., et al. (1998) Science 280, 1455-1457).

MAEC = assay: Monocyte adhesion: THP-1 monocytes bound to mouse aortic endothelial cells; format: cell-based
Protocol: as §1, §2
Monocyte Adhesion: Monocyte binding was determined under no-flow conditions using THP-1 monocytes (ATCC) by the method described by Chappel et al (Chappell, D. C., et al. (1998) Circ Res 82, 532-539). Briefly, THP-1 cells (5×10^5 cells/ml) were labeled with a fluorescent dye 2′,7′-bis(carboxyethyl)-5(6)-carboxyfluorescein-AM (BCECF, Molecular Probes) (1 mg/ml) in serum-free RPMI medium for 45 min at 37° C. Following exposure to shear stress or BMP treatments in the presence or absence of noggin or vehicle, the endothelial cells were washed in RPMI medium before adding BCECF-loaded THP-1 cells (1:1 ratio). After a 30 min incubation at 37° C. under no-flow conditions, unbound monocytes were removed by washing the endothelial dishes 5 times with Hank's PBS. Bound monocytes were quantified by either counting the cells under a fluorescent microscope or by measuring the fluorescent intensity of cell lysates by fluorescence spectrophotometry using a plate reader. […] Some studies were performed with MAEC pretreated with 5 μg/ml of mouse-ICAM1 antibody (YN1, Southern Biolechonology) (Kevil, C. G., et al. (2001) Am J Physiol Cell Physiol 281, C1442-1447).
In FIG. 7B, confluent MAE-wt cells were pre-incubated with cell-permeable PEG-catalase (Catalase, 100 U/ml for 18 hrs) or Tiron (10 μmol/L for 1 hr). Cells were then incubated with 20 ng/ml BMP4 or vehicle for additional 18 hrs. The treated cells in 7A and 7B were washed, and fluorescently-labeled THP-1 monocytes were added. Unbound THP-1 cells were washed after 30 min, and bound monocytes were counted with a fluorescence microscope using a 10× objective (5-10 different fields per dish). […] As a positive control, monocyte binding was determined using MAE-wt treated with TNF-α(100 U/ml for 2hrs).

In the case of BMP4, the “NF-κB activity above controls” value (NF-κB) is reported as “more than 3 fold”, the “production of H2O2 above control” value (MAE-wt cells) is reported as 70% and the “ICAM-1 expression above vector control cells” value (ICAM-1; HAEC transfected with BMP4 vector (Lipofectamine)) is reported as 3 to 4 fold. The “ICAM-1 expression above empty vector control” value (ICAM-1; HAEC, BMP4 overexpression (transfection)) was 84%, the “monocyte adhesion above vehicle control” value (MAEC; MAE-wt cells, BMP4 20 ng/ml, 18 hrs) was 5 to 6 fold and the “effect on LS inhibition of monocyte adhesion” value (MAEC; MAEC sheared (LS) 24 hrs in medium supplemented with BMP4) was “inhibitory effect of LS on monocyte adhesion was lost”. For the same substance, the “monocyte binding, maximum activation over control” value (MAEC; MAEC treated with increasing concentrations of BMP4 for 24 hr (overnight)) was 4 to 7 fold, the “BMP4 concentration inducing maximum effect on monocyte adhesion” value (MAEC; MAEC, 24 hr) was 50 ng/mL and the “lowest BMP4 concentration inducing a statistically significant increase in monocyte adhesion” value (MAEC; MAEC, 24 hr) was 0.1 ng/mL.
